Legend:
Assay type in all cases: in vivo
sugarcane [1] = assay: Sugarcane ripening field studies, florpyrauxifen-benzyl and haloxyfop-P-methyl; settings: for ripening performance: versus the standards trinexapac and sulfometuron
ratoon sugarcane = assay: Ratoon sugarcane control field studies; settings: for % Control: post application, 4 to 6 leaves, 50 to 60 cm
Experimental: In order to study the activity of Haloxyfop-P-methyl as possible herbicide for ratoon sugarcane control, field studies were carried out. Haloxyfop-P-methyl was tested at 124; 248; 373; 620 and 1240 g ai/ha plus mineral oil at 0.5% v/v and compared to key standard, as glyphosate (Glizmax Prime®) at 2160 g ae/ha. Trials were sprayed postemergence with 4 to 6 leaves or 50 to 60 cm of ratoon sugarcane regrowth and assessed percentage of control at 14; 30; 45 and 60 days after application (DAA).

sugarcane [2] = assay: Sugarcane ripening field studies, halauxifen-methyl plus haloxyfop-P-methyl; settings: six field studies, 30 days after application, rate g ai/ha: halauxifen-methyl 2.16, mixture 27 + 2.16, haloxyfop-P-methyl 27, sulfometuron 15, trinexapac 250; for Gain Fiber: untreated 0.5; for Gain POL: untreated 2.7; for Gain Purity: untreated 6.8; for Gain TRS: untreated 23.4
[3] = 30 days after application, rate g ai/ha: haloxyfop-P-methyl 27, florpyrauxifen-benzyl 2.2, mixture 27 + 2.2, sulfometuron 15, trinexapac 250, untreated 0.6
[4] = 30 days after application, rate g ai/ha: haloxyfop-P-methyl 27, florpyrauxifen-benzyl 2.2, mixture 27 + 2.2, sulfometuron 15, trinexapac 250, untreated 2.8
[5] = 30 days after application, rate g ai/ha: haloxyfop-P-methyl 27, florpyrauxifen-benzyl 2.2, mixture 27 + 2.2, sulfometuron 15, trinexapac 250, untreated 7.2
[6] = 30 days after application, rate g ai/ha: haloxyfop-P-methyl 27, florpyrauxifen-benzyl 2.2, mixture 27 + 2.2, sulfometuron 15, trinexapac 250, untreated 25.2
[7] = 45 days after application, rate g ai/ha: haloxyfop-P-methyl 27, florpyrauxifen-benzyl 2.2, mixture 27 + 2.2, sulfometuron 15, trinexapac 250, untreated 1.2
[8] = 45 days after application, rate g ai/ha: haloxyfop-P-methyl 27, florpyrauxifen-benzyl 2.2, mixture 27 + 2.2, sulfometuron 15, trinexapac 250, untreated 4.2
[9] = 45 days after application, rate g ai/ha: haloxyfop-P-methyl 27, florpyrauxifen-benzyl 2.2, mixture 27 + 2.2, sulfometuron 15, trinexapac 250, untreated 7.7
[10] = 45 days after application, rate g ai/ha: haloxyfop-P-methyl 27, florpyrauxifen-benzyl 2.2, mixture 27 + 2.2, sulfometuron 15, trinexapac 250, untreated 38.4
[11] = single application 50 L/ha 60 days before harvest, 30 DAA, rate g ai/ha: florpyrauxifen-benzyl 2.2, sulfometuron 15, trinexapac 250, untreated 2.8
[12] = single application 50 L/ha 60 days before harvest, 30 DAA, rate g ai/ha: florpyrauxifen-benzyl 2.2, sulfometuron 15, trinexapac 250, untreated 7.2
[13] = single application 50 L/ha 60 days before harvest, 30 DAA, rate g ai/ha: florpyrauxifen-benzyl 2.2, sulfometuron 15, trinexapac 250, untreated 25.2
[14] = single application 50 L/ha 60 days before harvest, 45 DAA, rate g ai/ha: florpyrauxifen-benzyl 2.2, sulfometuron 15, trinexapac 250, untreated 4.2
[15] = single application 50 L/ha 60 days before harvest, 45 DAA, rate g ai/ha: florpyrauxifen-benzyl 2.2, sulfometuron 15, trinexapac 250, untreated 7.7
[16] = single application 50 L/ha 60 days before harvest, 45 DAA, rate g ai/ha: florpyrauxifen-benzyl 2.2, sulfometuron 15, trinexapac 250, untreated 38.4
[17] = 14.5 g ai/ha, single application 50 L/ha 60 days before harvest, 30 DAA
[18] = 14.5 g ai/ha, single application 50 L/ha 60 days before harvest, 45 DAA
[19] = 50 g ai/ha, single application 50 L/ha 60 days before harvest, 30 DAA
[20] = 50 g ai/ha, single application 50 L/ha 60 days before harvest, 45 DAA
[21] = 100 g ai/ha, single application 50 L/ha 60 days before harvest, 30 DAA
[22] = 100 g ai/ha, single application 50 L/ha 60 days before harvest, 45 DAA

`COc1c(Cl)ccc(-c2nc(C(=O)OCc3ccccc3)c(Cl)c(N)c2F)c1F` [Florpyrauxifen-benzyl, florpyrauxifen-benzyl] was tested, and the “Gain Fiber” value (sugarcane [1]; [3]) was 0.5%, the “Gain POL” value (sugarcane [1]; [4]) was 2.6% and the “Gain Purity” value (sugarcane [1]; [5]) was 7.5%. For the same compound, the “Gain TRS” value (sugarcane [1]; [6]) was 23.0 kg/ton, the “Gain Fiber” value (sugarcane [1]; [7]) was 1.5% and the “Gain POL” value (sugarcane [1]; [8]) was 4.9%. The “Gain Purity” value (sugarcane [1]; [9]) was 10.3%, the “Gain TRS” value (sugarcane [1]; [10]) was 44.0 kg/ton and the ripening performance (sugarcane [1]; at 30 DAA) was “comparable to the standards trinexapac and sulfometuron”. The ripening performance (sugarcane [1]; at 45 DAA) was “unexpectedly superior to the standards”, the “Gain POL” value (sugarcane [1]; [11]) was 2.6% and the “Gain Purity” value (sugarcane [1]; [12]) was 7.5%. For the same compound, the “Gain TRS” value (sugarcane [1]; [13]) was 23.0 kg/ton, the “Gain POL” value (sugarcane [1]; [14]) was 4.9% and the “Gain Purity” value (sugarcane [1]; [15]) was 10.3%. For the same compound, the “Gain TRS” value (sugarcane [1]; [16]) was 44.0 kg/ton.

`O=C(O)CNCP(=O)(O)O` [Glyphosate, glyphosate] was tested, and the “% Control” value (ratoon sugarcane; 2160 g ai/ha, 14 DAA) was 84.5%, the “% Control” value (ratoon sugarcane; 2160 g ai/ha, 30 DAA) was 89.3% and the “% Control” value (ratoon sugarcane; 2160 g ai/ha, 45 DAA) was 95.7%. For the same compound, the “% Control” value (ratoon sugarcane; 2160 g ai/ha, 60 DAA) was 96.0%.

For `COC(=O)c1nc(-c2ccc(Cl)c(OC)c2F)cc(N)c1Cl` [Halauxifen-methyl, halauxifen-methyl], the “Gain Fiber” value (sugarcane [2]) was 0.5%, the “Gain POL” value (sugarcane [2]) was 3% and the “Gain Purity” value (sugarcane [2]) was 7.1%. For the same compound, the “Gain TRS” value (sugarcane [2]) was 25.4 kg/ton.

In the case of `COC(=O)[C@@H](C)Oc1ccc(Oc2ncc(C(F)(F)F)cc2Cl)cc1` [Haloxyfop-P-methyl, haloxyfop-P-methyl], the “Gain POL” value (sugarcane [1]; [17]) is reported as 3.3%, the “Gain Purity” value (sugarcane [1]; [17]) is reported as 13.0% and the “Gain TRS” value (sugarcane [1]; [17]) is reported as 27.8 kg/ton. For the same compound, the “Gain POL” value (sugarcane [1]; [18]) was 6.7%, the “Gain Purity” value (sugarcane [1]; [18]) was 18.3% and the “Gain TRS” value (sugarcane [1]; [18]) was 49.6 kg/ton. The “Gain POL” value (sugarcane [1]; [19]) was 2.8%, the “Gain Purity” value (sugarcane [1]; [19]) was 8.1% and the “Gain TRS” value (sugarcane [1]; [19]) was 23.7 kg/ton. The “Gain POL” value (sugarcane [1]; [20]) was 4.4%, the “Gain Purity” value (sugarcane [1]; [20]) was 10.3% and the “Gain TRS” value (sugarcane [1]; [20]) was 39.9 kg/ton. For the same compound, the “Gain POL” value (sugarcane [1]; [21]) was 3.2%, the “Gain Purity” value (sugarcane [1]; [21]) was 7.2% and the “Gain TRS” value (sugarcane [1]; [21]) was 28.6 kg/ton. For the same compound, the “Gain POL” value (sugarcane [1]; [22]) was 4.0%, the “Gain Purity” value (sugarcane [1]; [22]) was 8.8% and the “Gain TRS” value (sugarcane [1]; [22]) was 36.7 kg/ton. The “Gain Fiber” value (sugarcane [1]; [3]) was 0.4%, the “Gain POL” value (sugarcane [1]; [4]) was 2.6% and the “Gain Purity” value (sugarcane [1]; [5]) was 6.1%. For the same compound, the “Gain TRS” value (sugarcane [1]; [6]) was 23.7 kg/ton, the “Gain Fiber” value (sugarcane [1]; [7]) was 0.1% and the “Gain POL” value (sugarcane [1]; [8]) was 4.4%. The “Gain Purity” value (sugarcane [1]; [9]) was 10.3%, the “Gain TRS” value (sugarcane [1]; [10]) was 39.9 kg/ton and the “Gain Fiber” value (sugarcane [2]) was 0.7%. For the same compound, the “Gain POL” value (sugarcane [2]) was 2.9%, the “Gain Purity” value (sugarcane [2]) was 6.6% and the “Gain TRS” value (sugarcane [2]) was 24.7 kg/ton. For the same compound, the “% Control” value (ratoon sugarcane; 124 g ai/ha, 14 DAA) was 60.5%, the “% Control” value (ratoon sugarcane; 124 g ai/ha, 30 DAA) was 86.5% and the “% Control” value (ratoon sugarcane; 124 g ai/ha, 45 DAA) was 91.5%. The “% Control” value (ratoon sugarcane; 124 g ai/ha, 60 DAA) was 89.8%, the “% Control” value (ratoon sugarcane; 248 g ai/ha, 14 DAA) was 67.2% and the “% Control” value (ratoon sugarcane; 248 g ai/ha, 30 DAA) was 88.7%. The “% Control” value (ratoon sugarcane; 248 g ai/ha, 45 DAA) was 92.0%, the “% Control” value (ratoon sugarcane; 248 g ai/ha, 60 DAA) was 90.8% and the “% Control” value (ratoon sugarcane; 373 g ai/ha, 14 DAA) was 68.3%. For the same compound, the “% Control” value (ratoon sugarcane; 373 g ai/ha, 30 DAA) was 91.0%, the “% Control” value (ratoon sugarcane; 373 g ai/ha, 45 DAA) was 93.5% and the “% Control” value (ratoon sugarcane; 373 g ai/ha, 60 DAA) was 92.2%. The “% Control” value (ratoon sugarcane; 620 g ai/ha, 14 DAA) was 71.8%, the “% Control” value (ratoon sugarcane; 620 g ai/ha, 30 DAA) was 94.7% and the “% Control” value (ratoon sugarcane; 620 g ai/ha, 45 DAA) was 95.2%. The “% Control” value (ratoon sugarcane; 620 g ai/ha, 60 DAA) was 94.8%, the “% Control” value (ratoon sugarcane; 1240 g ai/ha, 14 DAA) was 74.5% and the “% Control” value (ratoon sugarcane; 1240 g ai/ha, 30 DAA) was 95.2%. The “% Control” value (ratoon sugarcane; 1240 g ai/ha, 45 DAA) was 96.3%, the “% Control” value (ratoon sugarcane; 1240 g ai/ha, 60 DAA) was 95.5% and the ratoon sugarcane control (ratoon sugarcane; rates from 373 to 1240 g ai/ha at 30 DAA) was “more than 90%”.

In the case of `COC(=O)c1ccccc1S(=O)(=O)NC(=O)Nc1nc(C)cc(C)n1` [Sulfometuron, sulfometuron-methyl], the “Gain Fiber” value (sugarcane [1]; [3]) is reported as 0.6%, the “Gain POL” value (sugarcane [1]; [4]) is reported as 2.4% and the “Gain Purity” value (sugarcane [1]; [5]) is reported as 6.5%. For the same compound, the “Gain TRS” value (sugarcane [1]; [6]) was 21.3 kg/ton, the “Gain Fiber” value (sugarcane [1]; [7]) was 0.6% and the “Gain POL” value (sugarcane [1]; [8]) was 3.6%. For the same compound, the “Gain Purity” value (sugarcane [1]; [9]) was 10.9%, the “Gain TRS” value (sugarcane [1]; [10]) was 31.4 kg/ton and the “Gain POL” value (sugarcane [1]; [11]) was 2.4%. For the same compound, the “Gain Purity” value (sugarcane [1]; [12]) was 6.5%, the “Gain TRS” value (sugarcane [1]; [13]) was 21.3 kg/ton and the “Gain POL” value (sugarcane [1]; [14]) was 3.6%. For the same compound, the “Gain Purity” value (sugarcane [1]; [15]) was 10.9%, the “Gain TRS” value (sugarcane [1]; [16]) was 31.4 kg/ton and the “Gain Fiber” value (sugarcane [2]) was 0.1%. For the same compound, the “Gain POL” value (sugarcane [2]) was 1.9%, the “Gain Purity” value (sugarcane [2]) was 1.9% and the “Gain TRS” value (sugarcane [2]) was 15.9 kg/ton.

In the case of `CCOC(=O)C1CC(=O)C(=C(O)C2CC2)C(=O)C1` (stereo not drawn) [Trinexapac, trinexapac-ethyl], the “Gain Fiber” value (sugarcane [1]; [3]) is reported as 0.4%, the “Gain POL” value (sugarcane [1]; [4]) is reported as 2.9% and the “Gain Purity” value (sugarcane [1]; [5]) is reported as 6.8%. For the same compound, the “Gain TRS” value (sugarcane [1]; [6]) was 25.8 kg/ton, the “Gain Fiber” value (sugarcane [1]; [7]) was 0.8% and the “Gain POL” value (sugarcane [1]; [8]) was 3.8%. The “Gain Purity” value (sugarcane [1]; [9]) was 5.8%, the “Gain TRS” value (sugarcane [1]; [10]) was 34.9 kg/ton and the “Gain POL” value (sugarcane [1]; [11]) was 2.9%. For the same compound, the “Gain Purity” value (sugarcane [1]; [12]) was 6.8%, the “Gain TRS” value (sugarcane [1]; [13]) was 25.0 kg/ton and the “Gain POL” value (sugarcane [1]; [14]) was 3.8%. The “Gain Purity” value (sugarcane [1]; [15]) was 5.8%, the “Gain TRS” value (sugarcane [1]; [16]) was 34.9 kg/ton and the “Gain Fiber” value (sugarcane [2]) was 0.4%. For the same compound, the “Gain POL” value (sugarcane [2]) was 2.5%, the “Gain Purity” value (sugarcane [2]) was 5.8% and the “Gain TRS” value (sugarcane [2]) was 21.8 kg/ton.

Source: patent US20260223848A1, “METHOD OF INCREASING SUGAR PRODUCTION FROM SUGARCANE” (CORTEVA AGRISCIENCE LLC, priority 2021, published 2026)
